Test results taken from patent publication US6310093A (priority 1998, dated 2001).
Where a chain is given by its changes, count along the chain named. Several values for one entry are separate records, joined by “and”; a condition that tells them apart may be missing. Identical values can stand only once. Like-named read-outs stand apart in the source and are kept apart here.

How the values were obtained:
[1] = tested on: neuronal cells in culture
[2] = tested on: glutaminase; conditions: cited from earlier work
[3] = Kaneko et al. 1992; cited from earlier work
[4] = Huber; cited from earlier work
[5] = target: T1, glutaminase in damaged neurons (Mus musculus, UniProt D3Z7P3)
T1 sequence (D3Z7P3 73-674 limits assumed): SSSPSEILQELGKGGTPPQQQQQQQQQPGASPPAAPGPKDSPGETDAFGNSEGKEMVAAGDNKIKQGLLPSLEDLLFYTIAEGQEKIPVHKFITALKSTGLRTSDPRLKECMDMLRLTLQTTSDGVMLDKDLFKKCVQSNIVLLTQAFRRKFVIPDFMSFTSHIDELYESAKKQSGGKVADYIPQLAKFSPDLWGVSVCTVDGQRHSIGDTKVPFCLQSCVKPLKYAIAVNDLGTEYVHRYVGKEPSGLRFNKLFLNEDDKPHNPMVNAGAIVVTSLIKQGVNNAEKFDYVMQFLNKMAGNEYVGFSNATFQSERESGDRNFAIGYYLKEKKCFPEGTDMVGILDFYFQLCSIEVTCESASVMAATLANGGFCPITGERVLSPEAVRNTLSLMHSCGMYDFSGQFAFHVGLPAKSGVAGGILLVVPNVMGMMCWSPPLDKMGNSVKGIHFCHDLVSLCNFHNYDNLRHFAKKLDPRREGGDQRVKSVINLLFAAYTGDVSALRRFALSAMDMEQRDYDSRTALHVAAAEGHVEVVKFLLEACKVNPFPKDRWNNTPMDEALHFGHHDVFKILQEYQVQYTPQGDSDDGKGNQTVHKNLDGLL

[6] = tested on: hippocampal slices (field potential)
[7] = target: T2, glutaminase in live (intact) neurons (Mus musculus, UniProt D3Z7P3); type: cell-based, mouse (Swiss Webster)
T2 sequence (D3Z7P3 55-674): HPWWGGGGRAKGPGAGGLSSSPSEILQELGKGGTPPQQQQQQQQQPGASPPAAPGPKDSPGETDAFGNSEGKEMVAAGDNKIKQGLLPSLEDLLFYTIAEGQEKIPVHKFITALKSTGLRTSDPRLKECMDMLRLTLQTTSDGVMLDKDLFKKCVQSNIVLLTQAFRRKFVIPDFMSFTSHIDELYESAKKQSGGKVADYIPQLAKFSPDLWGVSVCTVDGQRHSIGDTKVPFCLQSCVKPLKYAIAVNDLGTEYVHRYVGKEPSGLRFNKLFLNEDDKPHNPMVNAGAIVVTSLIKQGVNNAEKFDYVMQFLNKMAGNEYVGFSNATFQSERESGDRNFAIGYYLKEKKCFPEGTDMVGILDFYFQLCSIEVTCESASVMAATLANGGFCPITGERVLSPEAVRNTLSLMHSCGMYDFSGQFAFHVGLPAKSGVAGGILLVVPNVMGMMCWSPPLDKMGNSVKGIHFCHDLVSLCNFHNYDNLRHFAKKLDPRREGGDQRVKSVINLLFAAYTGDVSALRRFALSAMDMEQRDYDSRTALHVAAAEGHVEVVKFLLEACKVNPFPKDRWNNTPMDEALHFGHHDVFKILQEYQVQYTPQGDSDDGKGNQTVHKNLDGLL

[8] = tested on: mixed glial-neuronal cultures; experiment: Glutamate uptake (clearance) by mixed glial-neuronal cultures; type: cell-based, mouse (Swiss Webster)
Method: (§1) This allows expression of medium glutamate concentrations as:
(§2) where [Glu], in units of μM, is the concentration of glutamate in the 0.4 ml of medium in a culture well, S (in μM/min) is the rate of addition of glutamate to the culture medium from cellular sources, and k (in min^-1) is the empirically determined rate constant for clearance (Roberts). […] Although the value of k is proportional to cell (carrier) density, little variation is expected in cultures containing glia, as glial cultures are confluent.
as §2, with “(Roberts, D. V. (1977) Enzyme Kinetics, Cambridge University Press, Cambridge, pp23-30.).” for “(Roberts).”, “glia” for “glia,”

[9] = tested on: glial cultures (astrocytes); type: cell-based, mouse (Swiss Webster)
[10] = tested on: neuronal cultures; experiment: Glutamate uptake (clearance) by neuronal cultures; type: cell-based, mouse (Swiss Webster); conditions: intact neurons
Method: as §1, §2
as §2, with “(Roberts, D. V. (1977) Enzyme Kinetics, Cambridge University Press, Cambridge, pp23-30.).” for “(Roberts).”, “glia” for “glia,”

[11] = tested on: glial cultures (astrocytes); conditions: Hertz; Drejer; read-out: Km for cellular uptake of glutamate; cited from earlier work
[12] = tested on: isolated neurons; conditions: Rosenberg; Dugan et al., 1995; read-out: IC50 for toxicity of glutamate on isolated neurons; cited from earlier work
[13] = target: T3, glutaminase (brain membranes) (Rattus norvegicus, UniProt P13264); experiment: biochemical
T3 construct: Membranes are prepared by homogenization of brain tissue in 330 mM sucrose; from tissue; host or cells: rat brain, crude membranes (17000 G pellet)
T3 sequence (P13264 73-674 limits assumed): T1 sequence (D3Z7P3 73-674 limits assumed) with I64V, G590E

[14] = tested on: mixed neuronal-astrocyte cultures; experiment: cells; conditions: Mus musculus, 24 h, read-out: % cell death (LDH)
[15] = tested on: mixed neuronal-astrocyte cultures
[16] = tested on: neuronal cells in culture; experiment: cells; conditions: Mus musculus, read-out: LDH release by NMDA exposure relative to freeze-thaw
[17] = tested on: pure neuronal cultures (cortical neurons) exposed to glutamine
[18] = tested on: ischemic penumbra (dialysate glutamate); experiment: In vivo microdialysis of ischemic penumbra after MCAO; parameters: species or system rat; conditions: subsequent perfusion of phosphate; ±400%
Method: In further microdialysis experiments, exogenous glutamine was added to the ischemic penumbra via the probe, and dialysis glutamate was measured, as described in Example 7. When 10 mM glutamine plus 20 mM sodium phosphate were perfused into the penumbra for one hour, dialysate glutamate was elevated 315% as compared to control (±115%). […] The effects on glutamate were much more pronounced than on other amino acids measured; therefore, these studies provided further support for the involvement of extracellular glutaminase activity in producing the elevated levels of glutamate in cortical tissue undergoing ischemic damage.
The middle cerebral arteries of rats were occluded as in EXAMPLE 7, and the rats were returned to their cages overnight. The next morning, dialysis probes ([…], 2 mm length, 20,000 dalton cutoff) were inserted into ischemic penumbra (cortex) and perfused with artificial CSF at 3 μl/min for 1 h prior to collection of 10 minute fractions of dialysate. The effectiveness of the occlusion and the placement of probes were verified by TTC staining of 1 mm sections at the conclusion of the experiment. Amino acids in the dialysate were measured by reverse phase HPLC with fluorescence detection, after derivatization of the dialysates with o-phthaldialdehyde and N-acetyl-L-cysteine […]

[19] = 7 h hypoxia, 2 mM Gln + 30 uM pCMPS

## N[C@@H](CC(=O)CCl)C(=O)O [Chloroketone, L-2-amino-4-oxo-5-chloropentanoic acid]
[1]
  LDH release from neuronal cells (in words): resulted in release of lactate dehydrogenase from the cells, indicating cellular toxicity and death
[2]
  glutaminase inhibition (literature, in words): only weak (mM) inhibitors

## [N-]=[N+]=CC(=O)CC[C@H](N)C(=O)O [DON, 6-diazo-5-oxo-L-norleucine]
[3]
  toxicity and tissue penetration after CNS administration (in words): toxicity and poor tissue penetration
[4]
  crossing of cell membranes (in words): readily cross cell membranes
[1]
  LDH release from neuronal cells (in words): resulted in release of lactate dehydrogenase from the cells, indicating cellular toxicity and death
[5]
  inhibition of glutamate production: 90% and 50%
  inhibition of glutaminase activity in damaged cells (in words): inhibit glutaminase activity in damaged cells
[6]
  effect on hippocampal field potential (in words): decreased the magnitude and prolonged the duration of the field potential
[7]
  effect on glutaminase activity of intact/live neurons (in words): inhibition of glutaminase
  glutamate production after neuronal death: 0.23 ± 0.03 μM Glu/min and 0.15 ± 0.02 μM Glu/min

## N[C@@H](CCC(=O)O)C(=O)O [L-glutamic acid]
[8]; 15 μM glutamate
  first order rate constant for glutamate uptake: 0.072 min⁻¹
[8]; Table 2, glial-neuronal
  Glutamate uptake (k): 0.072
[9]
  Glutamate uptake (k): 0.083
  first order rate constant for glutamate uptake: 0.083 min⁻¹
  glutamate uptake rate of glial vs neuronal cultures: about 7 times
[10]
  Glutamate uptake (k): 0.012 min⁻¹
[11]
  Km: ~45 µM
[12]
  IC50: 5 to 10 µM
[13]
  glutaminase inhibition (in words): no significant effect on enzyme activity at 3.3 mM
[13]; read-out: Glutaminase Activity
  activity at 1000 µM: 105 ± 15%
  activity at 3300 µM: 113 ± 32%

## CN[C@H](CC(=O)O)C(=O)O [NMDA, N-methyl-D-aspartate]
[14]
  cytotoxicity at 500 µM: 100%
[15]
  Glu: 7.0 ± 0.6
[16]
  cytotoxicity at 500 µM: ~85%

## N[C@H](C(=O)O)[C@@H]1CC(Cl)=NO1 [acivicin]
[4]
  crossing of cell membranes (in words): readily cross cell membranes
[5]
  effect on glutamine hydrolysis by damaged neurons (in words): no effect on glutamine hydrolysis
[2]
  glutaminase inhibition (literature, in words): do not inhibit glutaminase

## [N-]=[N+]=CC(=O)OC[C@H](N)C(=O)O [azaserine]
[2]
  glutaminase inhibition (literature, in words): do not inhibit glutaminase

## NNC(=O)CCC(N)C(=O)O (stereo not shown) [glutamate-γ-hydrazide]
[5]
  effect on glutamine hydrolysis by damaged neurons (in words): no effect on glutamine hydrolysis

## O=S(=O)(O)c1cc[c]([Hg][Cl])cc1 [pCMPS, p-(chloromercuri)phenyl sulfonic acid]
[17]
  LDH release caused by glutamine exposure (in words): prevented the release of LDH
  medium glutamate: 10.3 ± 4 μM Glu
  neuronal morphology (in words): neurons retained their normal appearance after 24 h
  neuroprotection (in words): protected pure neuronal cultures from neuronal damage caused by exposure to glutamine
[17]; mouse, pure neuronal cultures, 24 h, 30 µM
  neuronal LDH release: 17 ± 10.5
[9]; at much higher concentrations than inhibition of exposed glutaminase
  glial uptake of glutamate (in words): blocks glial uptake of glutamate
[15]; 30 μM pCMPS, 2 mM glutamine, hypoxia 7h
  effect on medium glutamate and release of LDH in hypoxic mixed cultures (in words): lowered medium glutamate and release of LDH
[15]; [19]
  medium glutamate: 1.45 ± 1.0 μM Glu
  neuronal LDH release: 38.5 ± 8.1%
[1]; 30 μM
  LDH release from control cultures (in words): did not cause LDH release from control cultures
[5]
  concentration required to inhibit glutaminase: 10 to 30 µM
[5]; 30 μM
  inhibition of glutamine hydrolysis by NMDA-damaged neurons (in words): almost completely inhibited
[5]; 600 μM
  glutamate generation by NMDA-damaged neurons (in words): completely abolished glutamate generation
[6]; 120 μM, 60 min perfusion
  effect on hippocampal field potential (in words): no effect on the field potential
[7]
  effect on glutaminase activity of intact/live neurons (in words): lack of effect

## O=P(O)(O)O [phosphate, sodium phosphate]
[5]; mixed neuronal-glial cultures, 20000 µM
  increase of glutamate generation: 8 fold
[18]
  dialysate glutamate, % of control: 845 % of control
